Experiments:
Cytotoxicity, alamarBlue = assay type: cell-based; details: mouse, RAW 264.7 macrophage cells, read-out: CC50^72 h cytotoxicity (macrophage / mammalian cells)
Description: Leishmania amazonensis axenic amastigotes (100 μL, 2×10^6 cells/mL) were added to 96-multiwell plates containing 100 μL of amastigote culture medium with an appropriate compound dilution series. 0.1% DMSO (no drug) served as a positive control (100%), and 5 μM amphotericin B served as a negative growth control (0%). Only internal wells were used to minimize edge effects from evaporation. Axenic amastigotes were incubated at 32° C. with a compound/drug for 72 h prior to measurement. Similarly, the cytotoxicity of each compound was determined against RAW 264.7 cells and HepG2 cell lines, following 72 h incubation at 37° C. (promastigotes at 26° C.).
10% alamarBlue® (Thermo Fisher Scientific) was used to measure the growth of both parasite and mammalian cells. Conversion from a blue oxidized state to a pink reduced state was assessed visually at 6 hr. The fluorescence signal was measured with a BioTek Synergy H1 plate reader (530 nm excitation, 570 nm emission). For bioluminescence assays using L. amazonensisluc, relative luminescence units (RLU) were measured using Britelite Plus (PerkinElmer, USA). Luminescence produced by this luciferase reaction is proportional to the amount of luciferase-expressing, viable L. amazonensisluc. Following five-minute incubation at room temperature, the luminescence was measured with a BioTek Synergy H1 plate reader. […]

[1] = target: purified L. tarentolae tubulin (Leishmania tarentolae, UniProt A0A640KCM0+A0A640KQN0); assay: Tubulin polymerization turbidity assay, Leishmania tubulin; assay type: biochemical
Description: L. tarentolae (Parrot strain from ATCC) tubulin was purified. Briefly, promastigotes of L. tarentolae were grown to a high density (˜1×10^8 cells/mL), harvested, and resuspended in PME+P buffer containing 100 mM piperazine N, N′-bis (2-ethanesulfonic acid) (PIPES) buffer (pH 6.9), 1 mM glycol ether diamine tetraacetic acid (EGTA), 1 mM MgCl2, 1 mM benzamidine, 0.5 mM phenylmethylsulfonyl fluoride, 25 μg/ml leupeptin. The resulting suspension was extensively sonicated on ice with a probe sonicator (Misonix), cooled on ice for 30 minutes and centrifuged at 40,000×g for 1 hour at 4° C. using an ultracentrifuge (Beckman, Fullerton, CA). The resulting supernatant was filtered through a glass wool or 0.45-micron filter before loading into an equilibrated DEAE-Sepharose Fast Flow matrix (Amersham Biosciences). The column was washed with two column volumes of PME+P and subsequently four column volumes PME+P containing 0.1 M KCl and 0.25 M glutamate (pH 6.9). Tubulin was eluted with two column volumes PME+P containing 0.3 M KCl and 0.75 M glutamate (pH 6.9), and tubulin-rich fractions were confirmed by tubulin polymerization assays. The assembly-competent tubulin was pooled together and diluted into 1×PME buffer, 2 mM GTP, 10 mM MgCl2 and 8% DMSO (v/v). Tubulin was incubated in this buffer for 45 minutes at 30° C. to promote assembly, centrifuged at 50,000×g at 30° C. for 30 min, and re-suspended in 1 mL of ice-cold PME. […] Purity was assessed by SDS-PAGE and Coomassie Blue.
Tubulin polymerization assays were performed in 96-well half-area microplates (Costar) in a final volume of 100 μL. […] The absorbance at 340 nm was recorded in a Synergy H1 microplate reader (BioTek) for up to 45 min at 37° C. […]
To determine whether MMV676477 directly regulates microtubule assembly, assembly-competent tubulin from Leishmania tarentolae was purified and analyzed (FIG. 5A). […] 3 mg/mL purified L. tarentolae tubulin (3 mg/mL) was treated with serial dilutions of MMV676477 while the absorbance was measured at 340 nm over time.

[2] = test system: L. amazonensis promastigotes and amastigotes; assay: Microscopic analysis of cell division; assay type: cell-based, Leishmania amazonensis; details: 48 h at EC50^72 h
Description: Promastigotes or amastigotes were treated with the indicated compound concentrations and allowed to adhere to poly-L-lysine coated plates. All cells were fixed with 4% paraformaldehyde and permeabilized/blocked with 0.01% Triton X-100 and 2% BSA in PBS. Promastigotes and amastigotes were incubated with mouse anti-gp46 or anti-p8, respectively at 1:50 or 1:1000 and rat anti-alpha-tubulin antibody at 1:1000. Samples were then probed with A568 anti-mouse and […] secondary antibodies (Molecular Probes). DNA was labeled with Hoescht. Samples were visualized on a Zeiss LSM 880 Inverted confocal Airyscan microscope at 63×; full Z-thicknesses through parasites were obtained. […] For microscopic analysis of mitotic arrest, at least 200 parasites were analyzed per condition per experiment after 48 hrs incubation at compounds' EC50, and the average plus standard error for three experiments was calculated. Representative images were selected from the maximal intensity projections and linearly processed in Adobe Photoshop CS6.
The molecular target of MMV676477 was investigated.

[3] = test system: cellular tubulin of L. amazonensis; assay: Polymerized vs. unpolymerized tubulin in parasites (differential centrifugation, western blot); assay type: cell-based, Leishmania amazonensis; details: 24 h at EC50^72 h, densitometry
Text: One reason why MMV676477 might affect parasite cell division is that, like paclitaxel, it might affect microtubule polymerization, either directly or indirectly. The degree to which MMV676477 affected microtubules polymerization in cells was examined. […] Centrifugation of these extracts allowed separation of insoluble polymeric (pellet) and soluble dimeric (supernatant) tubulin. […] The intensity of α-tubulin staining was examined by normalizing it to the intensity of a membrane protein (gp46 for promastigotes in FIG. 4D; p8 for amastigotes in FIG. 4E).

CCc1c(C)nc(-n2nc(C)cc2NC(=O)c2ccccc2SC)[nH]c1=O [MMV676477, N-(1-(5-Ethyl-4-methyl-6-oxo-1,6-dihydropyrimidin-2-yl)-3-methyl-1H-pyrazol-5-yl)-2-(methylthio)benzamide]
CC50 at 72 h (Cytotoxicity, alamarBlue): 2200 nM
EC50 [1]: 500 nM
selectivity for purified Leishmania tubulin over mammalian tubulin ([1]; 0.5 vs 11 μM EC50): 20 fold
percentage of L. amazonensis undergoing cell division [2]: significant two-fold increase
proportion of cellular polymeric tubulin [3]: significantly increased the proportion of cellular polymeric tubulin

From patent publication US20240139190A1, “NOVEL ANTIPARASITIC COMPOUNDS AND METHODS” (The Board of Regents of The University of Texas System, priority 2019, published 2024)
